Where two headings read alike, the source gives them in different places. Ends that are not written are not given here.
Experiments:
[1] = test system: bacterial LPS derived from E. coli 0111:B4; assay: LPS neutralization, Limulus amebocyte lysate (LAL) assay; type: biochemical; settings: 1 ng LPS; for inhibition of LPS activity: 30 min
Experimental: FIG. 1 depicts the mean (±S.E.) percent neutralization of bacterial LPS bioactivity as determined with the Limulus amebocyte lysate assay. Increasing concentrations of peptides or polymixin B were incubated with 1 ng of E. coli-derived LPS for 30 min. Following incubation, the amount of free LPS was determined by extrapolation from a standard curve and the percent of bound (neutralized) LPS was calculated.
The ability of the peptides to neutralize LPS was determined using a commercially available Limulus amebocyte lysate (LAL) assay (Cambrex BioScience Walkersville, Inc., Walkersville, Md.). As a positive control, polymyxin B (Sigma Chemical Co.) was evaluated in parallel with the peptides. Increasing concentrations of peptides or polymyxin B were incubated with 1 ng of highly purified bacterial LPS (Sigma Chemical Co.), derived from E. coli 0111:B4, in a 500 μl reaction volume of endotoxin-free water for 30 min at 37° C. while shaking at 100 rpm. Following the incubation, the amount of free LPS was determined in each sample according to the manufacturer's instructions. Briefly, 50 μl of the above mixture was placed into a 96-well microtiter plate and the reaction initiated by the addition of an equal volume of amoebocyte lysate. Following an incubation at 37° C. for 10 min, 100 μl of chromogenic substrate was added and the plate incubated for 5-10 min at 37° C. The reaction was stopped by the addition of 50 μl of glacial acetic acid and the absorbance measured at a wavelength of 405 nm on a microplate reader (Biotec Instruments, Inc., Winooski, Vt.). The amount of non-bound LPS was extrapolated from a standard curve and the percent inhibition calculated according to the following formula: […]
To determine whether the bBPI peptides were able to neutralize LPS, increasing concentrations of the peptides were incubated with LPS (1 ng) and the resulting mixture assayed with the LAL assay (FIG. 1). As a positive and negative control, respectively, polymyxin B and a non-BPI-derived peptide were also assayed. […] In contrast, bBPI142-169 and bBPI90-99,148-161 were able to neutralize ≧93% of LPS activity at peptide concentrations of 30 and 100 μg/ml, respectively.

E. coli strain P4 = type: cell-based; settings: for Mean log10 colony forming units: milk, 6 hours at 37° C.
Experimental: Milk and blood samples were aseptically collected from 8 clinically healthy primiparous Holstein cows in mid-lactation with milk somatic cell counts of <150,000 cells/ml. All cows were determined to be free of intramammary pathogens by the absence of growth on blood agar plates spread with milk samples aseptically collected from each animal on 3 different days. For the preparation of whey, milk samples were centrifuged at 44,000×g at 4° C. for 30 min, and the fat layer removed with a spatula. The skim milk was transferred into another sterile tube, centrifuged for an additional 30 min, and the translucent supernatant collected. Milk and whey samples were pasteurized by heating at 63° C. for 30 min. For the preparation of serum, blood was collected from the coccygeal vein into vacutainer tubes containing gel and clot activator (BD Biosciences) for serum separation. The tubes were inverted ×5, the blood allowed to clot for 30 min, and the tubes centrifuged at 1500×g for 15 min. The clear serum supernatants were aseptically transferred into sterile tubes and heat-inactivated by incubating at 56° C. for 30 min. An aliquot of each sample was plated on blood agar plates and samples that were free of detectable bacterial growth were stored at −20° C.
Overnight bacterial cultures of E. coli strain P4 grown in trypticase soy broth were diluted 1:1,000 in brain heart infusion broth and incubated at 37° C. for 2 hours while shaking at 225 rpm. The log-phase bacteria were diluted 1:10 in brain heart infusion broth to obtain a final concentration of […]. 0.01 ml of the bacterial inoculum was added to a 1.5 ml sterile microcentrifuge tube containing 0.04 ml of serum, milk, or whey. A 0.05 ml aliquot of either peptide or CBS alone was added to each tube. The samples were then shaken at 100 rpm for 6 hours at 37° C. The sample mixtures were subsequently serially diluted in sterile phosphate-buffered saline and plated on MacConkey agar plates (BD Biosciences). The plates were incubated overnight at 37° C. and the colonies enumerated.
To determine whether bBPI142-169 and bBPI90-99,148-161 retained their bactericidal activity in physiological fluids, the peptides were incubated with E. coli strain P4 (1×10^5 CFU) in the presence of serum (Table 2) or milk (Table 3).
However, bBPI90-99,148-161 was able to inhibit >99% of the growth of E. coli in milk. Because milk appeared to have an inhibitory effect on the bactericidal activity of bBPI90-99,148-161, the peptides were subsequently evaluated for their ability to retain activity in whey, which is the casein-depleted, protein-rich liquid fraction of milk (Table 4).

| Sequence | inhibition of LPS activity ([1]; 1 μg/ml) | inhibition of LPS activity ([1]; 30 μg/ml) [%] | Mean log10 colony forming units (E. coli strain P4; peptide 20 μg/ml) | Mean log10 colony forming units (E. coli strain P4; peptide 200 μg/ml) | Mean log10 colony forming units (E. coli strain P4; peptide 2000 μg/ml) | inhibition of the growth of E. coli (E. coli strain P4; strain P4, 2 mg/ml) [%] | maximal inhibition of LPS activity ([1]; within the dose-response range tested) [%] |
| --- | --- | --- | --- | --- | --- | --- | --- |
| KWKARKNFIKGSSLGWLIQLFRKR [bBPI90-99,148-161] | no inhibition | 74 | 8.65 log10 colony forming units | 7.89 log10 colony forming units | 6.55 log10 colony forming units | > 99 | – |
| NSQIRPLPDKGLDLSIRDASIKIRGKWKARKNFIK [bBPI65-99] | approximately 20% | – | 8.69 log10 colony forming units | 8.54 log10 colony forming units | 8.06 log10 colony forming units | – | 50 |
| VRIHISGSSLGWLIQLFRKRIESLLQKS [bBPI142-169] | approximately 20% | – | 8.67 log10 colony forming units | 8.55 log10 colony forming units | 7.99 log10 colony forming units | – | – |

— patent publication US20090048160A1, “Antimicrobial activity of bovine bactericidal/permeability-increasing protein (BPI)-derived peptides against Gram-negative bacterial mastitis isolates” (priority 2007, published 2009)
